# Reference: the NIST ThermoML archive (doi:10.1016/j.jct.2017.08.024)
# ± gives the expanded uncertainty stated by the source.
# Tests used:
# [1] = for surface tension liquid-gas: wilhelmy plate; for viscosity: 101.33 kPa, Liquid, Concentric cylinders viscometry
# [2] = wn = mass fraction of the nth substance listed; details: for surface tension liquid-gas: wilhelmy plate; for viscosity: 101 kPa, Liquid, Concentric cylinders viscometry
compound,measurement,setting,value
NCCO [2-aminoethan-1-ol],surface tension liquid-gas,[1]; 303.2 K,47.7 ± 0.6 mN/m
same,viscosity,[1]; 303.2 K,14.47 ± 0.45 mPa·s
same,surface tension liquid-gas,[1]; 313.2 K,45.9 ± 0.6 mN/m
same,viscosity,[1]; 313.2 K,9.87 ± 0.15 mPa·s
same,surface tension liquid-gas,[1]; 323.2 K,44.2 ± 0.6 mN/m
same,viscosity,[1]; 323.2 K,6.79 ± 0.14 mPa·s
NCCO [2-aminoethan-1-ol] + O,surface tension liquid-gas,"[2]; 303.2 K, w1 = 0.2",62.1 ± 0.6 mN/m
same,surface tension liquid-gas,"[2]; 303.2 K, w1 = 0.3",59.7 ± 0.6 mN/m
same,surface tension liquid-gas,"[2]; 303.2 K, w1 = 0.4",57.8 ± 0.6 mN/m
same,surface tension liquid-gas,"[2]; 303.2 K, w1 = 1",47.7 ± 0.6 mN/m
same,viscosity,"[2]; 303.2 K, w1 = 0.2",1.51 ± 0.12 mPa·s
same,viscosity,"[2]; 303.2 K, w1 = 0.3",2.11 ± 0.13 mPa·s
same,viscosity,"[2]; 303.2 K, w1 = 0.4",3.12 ± 0.13 mPa·s
same,viscosity,"[2]; 303.2 K, w1 = 1",14.47 ± 0.45 mPa·s
same,surface tension liquid-gas,"[2]; 313.2 K, w1 = 0.2",60.4 ± 0.6 mN/m
same,surface tension liquid-gas,"[2]; 313.2 K, w1 = 0.3",58.4 ± 0.6 mN/m
same,surface tension liquid-gas,"[2]; 313.2 K, w1 = 0.4",56.3 ± 0.6 mN/m
same,surface tension liquid-gas,"[2]; 313.2 K, w1 = 1",45.9 ± 0.6 mN/m
same,viscosity,"[2]; 313.2 K, w1 = 0.2",1.18 ± 0.12 mPa·s
same,viscosity,"[2]; 313.2 K, w1 = 0.3",1.63 ± 0.12 mPa·s
same,viscosity,"[2]; 313.2 K, w1 = 0.4",2.29 ± 0.13 mPa·s
same,viscosity,"[2]; 313.2 K, w1 = 1",9.87 ± 0.15 mPa·s
same,surface tension liquid-gas,"[2]; 323.2 K, w1 = 0.2",58.9 ± 0.6 mN/m
same,surface tension liquid-gas,"[2]; 323.2 K, w1 = 0.3",56.4 ± 0.6 mN/m
same,surface tension liquid-gas,"[2]; 323.2 K, w1 = 0.4",54.6 ± 0.6 mN/m
same,surface tension liquid-gas,"[2]; 323.2 K, w1 = 1",44.2 ± 0.6 mN/m
same,viscosity,"[2]; 323.2 K, w1 = 0.2",0.97 ± 0.12 mPa·s
same,viscosity,"[2]; 323.2 K, w1 = 0.3",1.31 ± 0.12 mPa·s
same,viscosity,"[2]; 323.2 K, w1 = 0.4",1.79 ± 0.12 mPa·s
same,viscosity,"[2]; 323.2 K, w1 = 1",6.79 ± 0.14 mPa·s
OCCNCCO [diethanolamine],surface tension liquid-gas,[1]; 303.2 K,46 ± 0.6 mN/m
same,viscosity,[1]; 303.2 K,381.21 ± 20 mPa·s
same,surface tension liquid-gas,[1]; 313.2 K,44.1 ± 0.6 mN/m
same,viscosity,[1]; 313.2 K,188.64 ± 6.6 mPa·s
same,surface tension liquid-gas,[1]; 323.2 K,42.8 ± 0.6 mN/m
same,viscosity,[1]; 323.2 K,105.98 ± 5.5 mPa·s
OCCNCCO [diethanolamine] + O,surface tension liquid-gas,"[2]; 303.2 K, w1 = 0.2",63.3 ± 0.6 mN/m
same,surface tension liquid-gas,"[2]; 303.2 K, w1 = 0.3",60.5 ± 0.6 mN/m
same,surface tension liquid-gas,"[2]; 303.2 K, w1 = 0.4",58.3 ± 0.6 mN/m
same,surface tension liquid-gas,"[2]; 303.2 K, w1 = 1",46 ± 0.6 mN/m
same,viscosity,"[2]; 303.2 K, w1 = 0.2",1.64 ± 0.12 mPa·s
same,viscosity,"[2]; 303.2 K, w1 = 0.3",2.57 ± 0.13 mPa·s
same,viscosity,"[2]; 303.2 K, w1 = 0.4",4.27 ± 0.14 mPa·s
same,viscosity,"[2]; 303.2 K, w1 = 1",381.21 ± 20 mPa·s
same,surface tension liquid-gas,"[2]; 313.2 K, w1 = 0.2",62.1 ± 0.6 mN/m
same,surface tension liquid-gas,"[2]; 313.2 K, w1 = 0.3",58.8 ± 0.6 mN/m
same,surface tension liquid-gas,"[2]; 313.2 K, w1 = 0.4",56.6 ± 0.6 mN/m
same,surface tension liquid-gas,"[2]; 313.2 K, w1 = 1",44.1 ± 0.6 mN/m
same,viscosity,"[2]; 313.2 K, w1 = 0.2",1.29 ± 0.12 mPa·s
same,viscosity,"[2]; 313.2 K, w1 = 0.3",1.98 ± 0.13 mPa·s
same,viscosity,"[2]; 313.2 K, w1 = 0.4",3.01 ± 0.13 mPa·s
same,viscosity,"[2]; 313.2 K, w1 = 1",188.64 ± 6.6 mPa·s
same,surface tension liquid-gas,"[2]; 323.2 K, w1 = 0.2",59.9 ± 0.6 mN/m
same,surface tension liquid-gas,"[2]; 323.2 K, w1 = 0.3",57.4 ± 0.6 mN/m
same,surface tension liquid-gas,"[2]; 323.2 K, w1 = 0.4",54.7 ± 0.6 mN/m
same,surface tension liquid-gas,"[2]; 323.2 K, w1 = 1",42.8 ± 0.6 mN/m
same,viscosity,"[2]; 323.2 K, w1 = 0.2",1.03 ± 0.12 mPa·s
same,viscosity,"[2]; 323.2 K, w1 = 0.3",1.42 ± 0.12 mPa·s
same,viscosity,"[2]; 323.2 K, w1 = 0.4",2.27 ± 0.13 mPa·s
same,viscosity,"[2]; 323.2 K, w1 = 1",105.98 ± 5.5 mPa·s
CO [methanol],surface tension liquid-gas,[1]; 303.2 K,21.7 ± 0.6 mN/m
same,viscosity,[1]; 303.2 K,0.51 ± 0.12 mPa·s
same,surface tension liquid-gas,[1]; 313.2 K,20.9 ± 0.6 mN/m
same,viscosity,[1]; 313.2 K,0.44 ± 0.12 mPa·s
same,surface tension liquid-gas,[1]; 323.2 K,20 ± 0.6 mN/m
same,viscosity,[1]; 323.2 K,0.39 ± 0.12 mPa·s
O [water],surface tension liquid-gas,[1]; 303.2 K,71.1 ± 0.6 mN/m
same,viscosity,[1]; 303.2 K,0.8 ± 0.12 mPa·s
same,surface tension liquid-gas,[1]; 313.2 K,69.4 ± 0.6 mN/m
same,viscosity,[1]; 313.2 K,0.65 ± 0.12 mPa·s
same,surface tension liquid-gas,[1]; 323.2 K,67.7 ± 0.6 mN/m
same,viscosity,[1]; 323.2 K,0.55 ± 0.12 mPa·s
O [water] + NCCO,surface tension liquid-gas,"[2]; 303.2 K, w2 = 0",71.1 ± 0.6 mN/m
same,viscosity,"[2]; 303.2 K, w2 = 0",0.8 ± 0.12 mPa·s
same,surface tension liquid-gas,"[2]; 313.2 K, w2 = 0",69.4 ± 0.6 mN/m
same,viscosity,"[2]; 313.2 K, w2 = 0",0.65 ± 0.12 mPa·s
same,surface tension liquid-gas,"[2]; 323.2 K, w2 = 0",67.7 ± 0.6 mN/m
same,viscosity,"[2]; 323.2 K, w2 = 0",0.55 ± 0.12 mPa·s
O [water] + OCCNCCO,surface tension liquid-gas,"[2]; 303.2 K, w2 = 0",71.1 ± 0.6 mN/m
same,viscosity,"[2]; 303.2 K, w2 = 0",0.8 ± 0.12 mPa·s
same,surface tension liquid-gas,"[2]; 313.2 K, w2 = 0",69.4 ± 0.6 mN/m
same,viscosity,"[2]; 313.2 K, w2 = 0",0.65 ± 0.12 mPa·s
same,surface tension liquid-gas,"[2]; 323.2 K, w2 = 0",67.7 ± 0.6 mN/m
same,viscosity,"[2]; 323.2 K, w2 = 0",0.55 ± 0.12 mPa·s
